Source: ChEMBL document CHEMBL3431459, “Roche carnitine palmitoyltransferase modulator screening data (supplementary data associated with the publication CHEMBL2216752)”
pIC50: −log10 of the molar value. ≈ marks a conversion by molar mass, not a printed value.

What was measured:
[1] = molecular target: T1, Carnitine O-palmitoyltransferase 1, muscle isoform (Homo sapiens, UniProt Q92523); assay: SUPPLEMENTARY: Inhibition of Carnitine palmitoyltransferase 1, muscle isoform; design: species or system Muscle tissue
T1 sequence (Q92523 whole entry): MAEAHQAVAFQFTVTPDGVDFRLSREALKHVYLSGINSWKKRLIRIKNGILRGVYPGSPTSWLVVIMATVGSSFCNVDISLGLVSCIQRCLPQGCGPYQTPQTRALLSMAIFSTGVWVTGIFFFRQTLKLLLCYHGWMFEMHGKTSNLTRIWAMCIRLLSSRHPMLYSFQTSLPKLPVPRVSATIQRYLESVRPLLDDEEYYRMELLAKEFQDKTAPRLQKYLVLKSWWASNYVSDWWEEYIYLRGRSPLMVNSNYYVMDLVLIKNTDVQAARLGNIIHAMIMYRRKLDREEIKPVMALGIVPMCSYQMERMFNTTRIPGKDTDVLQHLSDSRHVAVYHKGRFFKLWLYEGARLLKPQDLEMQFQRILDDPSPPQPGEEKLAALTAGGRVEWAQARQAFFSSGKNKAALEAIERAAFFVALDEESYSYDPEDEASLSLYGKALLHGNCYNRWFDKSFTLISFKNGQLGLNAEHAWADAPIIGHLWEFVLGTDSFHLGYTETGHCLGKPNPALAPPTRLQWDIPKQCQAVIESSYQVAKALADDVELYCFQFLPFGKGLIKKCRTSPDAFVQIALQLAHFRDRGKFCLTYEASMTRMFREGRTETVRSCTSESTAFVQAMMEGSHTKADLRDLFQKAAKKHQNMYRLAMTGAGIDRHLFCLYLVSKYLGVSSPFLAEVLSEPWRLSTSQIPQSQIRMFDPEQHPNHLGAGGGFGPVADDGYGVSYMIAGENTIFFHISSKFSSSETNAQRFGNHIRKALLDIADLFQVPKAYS

[2] = molecular target: T2, Carnitine O-palmitoyltransferase 2, mitochondrial (Homo sapiens, UniProt P23786); assay: (§1) SUPPLEMENTARY: Inhibition of Carnitine palmitoyltransferase 2
T2 sequence (P23786 whole entry): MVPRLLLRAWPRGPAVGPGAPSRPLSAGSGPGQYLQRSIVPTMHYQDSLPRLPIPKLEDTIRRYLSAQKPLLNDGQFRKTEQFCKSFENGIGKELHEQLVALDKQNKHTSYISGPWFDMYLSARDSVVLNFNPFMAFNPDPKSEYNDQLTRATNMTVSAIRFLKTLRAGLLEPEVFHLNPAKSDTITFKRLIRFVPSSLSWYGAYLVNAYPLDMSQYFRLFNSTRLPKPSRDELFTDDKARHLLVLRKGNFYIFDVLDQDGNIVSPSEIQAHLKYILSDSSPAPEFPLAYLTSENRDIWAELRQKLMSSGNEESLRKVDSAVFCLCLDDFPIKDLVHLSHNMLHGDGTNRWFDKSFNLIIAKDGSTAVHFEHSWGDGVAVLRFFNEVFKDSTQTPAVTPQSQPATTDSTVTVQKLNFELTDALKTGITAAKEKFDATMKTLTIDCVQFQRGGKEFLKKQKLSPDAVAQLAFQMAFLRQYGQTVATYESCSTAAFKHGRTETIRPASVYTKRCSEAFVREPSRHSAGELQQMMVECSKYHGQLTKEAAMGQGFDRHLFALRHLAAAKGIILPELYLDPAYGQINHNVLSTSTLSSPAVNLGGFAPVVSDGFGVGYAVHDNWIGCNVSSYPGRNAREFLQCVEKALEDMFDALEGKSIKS

[3] = molecular target: T3, Carnitine O-palmitoyltransferase 2, mitochondrial (Rattus norvegicus, UniProt P18886); assay: as §1
T3 sequence (P18886 whole entry): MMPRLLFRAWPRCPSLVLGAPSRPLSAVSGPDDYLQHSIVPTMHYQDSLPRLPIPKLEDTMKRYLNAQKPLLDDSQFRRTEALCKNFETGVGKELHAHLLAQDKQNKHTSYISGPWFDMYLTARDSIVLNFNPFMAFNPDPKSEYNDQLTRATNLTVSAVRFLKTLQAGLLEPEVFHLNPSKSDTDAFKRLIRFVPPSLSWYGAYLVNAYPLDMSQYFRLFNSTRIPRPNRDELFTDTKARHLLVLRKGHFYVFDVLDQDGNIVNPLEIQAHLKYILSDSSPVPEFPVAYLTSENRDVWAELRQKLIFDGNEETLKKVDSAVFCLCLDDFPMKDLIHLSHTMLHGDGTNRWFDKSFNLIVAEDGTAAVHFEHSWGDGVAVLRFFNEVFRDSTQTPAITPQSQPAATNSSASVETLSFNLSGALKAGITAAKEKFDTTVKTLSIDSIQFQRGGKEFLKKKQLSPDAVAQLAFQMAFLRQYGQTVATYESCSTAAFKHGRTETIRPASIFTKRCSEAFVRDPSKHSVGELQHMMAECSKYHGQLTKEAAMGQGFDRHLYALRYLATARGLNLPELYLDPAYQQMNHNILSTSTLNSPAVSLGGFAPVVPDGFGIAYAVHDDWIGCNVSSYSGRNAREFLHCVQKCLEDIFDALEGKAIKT

[4] = molecular target: T4, Carnitine O-palmitoyltransferase 1, liver isoform (Homo sapiens, UniProt P50416); assay: (§2) SUPPLEMENTARY: Inhibition of Carnitine palmitoyltransferase 1, liver isoform
T4 sequence (P50416 whole entry): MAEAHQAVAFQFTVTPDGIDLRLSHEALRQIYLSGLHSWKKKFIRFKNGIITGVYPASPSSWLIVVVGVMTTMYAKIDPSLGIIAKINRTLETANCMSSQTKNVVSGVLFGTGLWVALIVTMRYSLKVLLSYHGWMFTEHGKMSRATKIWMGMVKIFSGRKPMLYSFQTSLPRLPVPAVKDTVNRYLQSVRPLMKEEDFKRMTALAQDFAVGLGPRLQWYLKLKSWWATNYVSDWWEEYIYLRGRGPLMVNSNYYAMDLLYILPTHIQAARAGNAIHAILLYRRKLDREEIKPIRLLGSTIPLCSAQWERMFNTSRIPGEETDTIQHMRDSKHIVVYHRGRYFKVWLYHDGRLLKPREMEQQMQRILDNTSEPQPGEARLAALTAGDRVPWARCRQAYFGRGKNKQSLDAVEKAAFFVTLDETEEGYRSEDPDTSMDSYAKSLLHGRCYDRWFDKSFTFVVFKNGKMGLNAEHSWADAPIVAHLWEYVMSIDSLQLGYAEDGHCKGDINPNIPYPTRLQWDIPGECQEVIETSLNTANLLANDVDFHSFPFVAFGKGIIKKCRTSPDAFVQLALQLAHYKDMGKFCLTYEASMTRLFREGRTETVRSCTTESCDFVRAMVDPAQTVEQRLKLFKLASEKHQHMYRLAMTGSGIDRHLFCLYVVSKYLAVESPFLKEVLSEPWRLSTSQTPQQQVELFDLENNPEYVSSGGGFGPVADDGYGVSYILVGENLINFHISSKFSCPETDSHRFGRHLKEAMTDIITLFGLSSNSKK

[5] = molecular target: T5, Carnitine O-palmitoyltransferase 1, liver isoform (Rattus norvegicus, UniProt P32198); assay: as §2
T5 sequence (P32198 whole entry): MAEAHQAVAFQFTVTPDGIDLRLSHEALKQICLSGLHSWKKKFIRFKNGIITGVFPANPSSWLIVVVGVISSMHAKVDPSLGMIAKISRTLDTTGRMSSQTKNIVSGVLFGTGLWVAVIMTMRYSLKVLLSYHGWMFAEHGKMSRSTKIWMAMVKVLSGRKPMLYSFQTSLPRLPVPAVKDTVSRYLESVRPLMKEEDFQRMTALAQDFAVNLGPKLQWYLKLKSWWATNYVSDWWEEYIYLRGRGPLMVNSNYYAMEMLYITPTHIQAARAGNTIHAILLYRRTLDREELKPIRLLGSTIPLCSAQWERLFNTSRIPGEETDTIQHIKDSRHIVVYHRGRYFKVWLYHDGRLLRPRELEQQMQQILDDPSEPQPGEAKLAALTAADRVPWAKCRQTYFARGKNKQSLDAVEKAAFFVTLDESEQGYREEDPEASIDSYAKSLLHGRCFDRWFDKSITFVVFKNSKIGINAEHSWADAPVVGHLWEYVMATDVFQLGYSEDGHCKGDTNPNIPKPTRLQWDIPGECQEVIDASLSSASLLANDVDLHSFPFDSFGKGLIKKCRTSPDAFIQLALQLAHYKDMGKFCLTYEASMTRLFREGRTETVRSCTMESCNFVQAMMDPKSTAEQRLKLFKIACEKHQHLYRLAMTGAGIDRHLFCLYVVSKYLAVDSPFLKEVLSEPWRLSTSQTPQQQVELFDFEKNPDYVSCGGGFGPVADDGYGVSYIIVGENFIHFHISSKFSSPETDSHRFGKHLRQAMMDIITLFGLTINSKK

[6] = SUPPLEMENTARY: Lyophilisation Solubility Assay (LYSA); type: physicochemical; settings: read-out: Kinetic_solubility
[7] = SUPPLEMENTARY: Lipophilicity (log D) Determination by high-throughput shake-flask; type: physicochemical; settings: octanol/water
[8] = SUPPLEMENTARY: PAMPA permeability assay; type: physicochemical; settings: read-out: Permeability

pIC50 [1] | pIC50 [2] | pIC50 [3] | pIC50 [4] | pIC50 [5] | solubility kinetic [6] | logD [7] | Papp [8] | Structure (SMILES)
< 4.00 | 6.01 | 5.66 | 6.66 | 6.33 | 23 µg/mL (≈ 56.3 µM) | 3.13 | 5.46 ×10⁻⁶ cm/s | COc1cccc2c1CCN(C(=O)[C@H]1CCCCN1C(=O)COc1ccccc1)C2
4.33 | < 4.00 | < 4.00 | 7.27 | 7.27 | 440 µg/mL (≈ 900 µM) | 0.47 | 2.38 ×10⁻⁶ cm/s | COc1ccc(Cl)cc1S(=O)(=O)Nc1cc(C(=O)Nc2ccccc2)ccc1CCC(=O)O
< 4.00 | 4.34 | < 4.00 | 7.10 | 6.43 | 121 µg/mL (≈ 277 µM) | 2.43 | 2.67 ×10⁻⁶ cm/s | CC(=O)Nc1cc(-c2n[nH]c([C@H]3CCCCN3C(=O)COc3ccccc3)n2)ccc1F
< 4.00 | < 4.00 | < 4.00 | 6.55 | 6.03 | 143 µg/mL (≈ 370 µM) | 2.36 | 11.5 ×10⁻⁶ cm/s | CCN(CC)C(=O)c1nc([C@H]2CCCCN2C(=O)COc2ccccc2)no1
< 4.00 | 5.71 | 5.19 | 7.45 | 7.54 | 1 µg/mL (≈ 2.23 µM) | > 3 | 1.46 ×10⁻⁶ cm/s | Cc1cc(C)cc(S(=O)(=O)n2ccc3ccc(C(=O)Nc4ccc(C(=O)O)cc4)cc32)c1
6.20 | < 4.00 | < 4.00 | 6.98 | 6.39 | 577 µg/mL (≈ 944 µM) | < -1 | 0.04 ×10⁻⁶ cm/s | CCOc1ccc(C(=O)Nc2ccc(CC(=O)O)cc2)cc1N(CCS(=O)O)S(=O)(=O)c1cc(Cl)ccc1OC
6.27 | < 4.00 | < 4.00 | 7.33 | 7.71 | 418 µg/mL (≈ 836 µM) | 1.21 | 0.96 ×10⁻⁶ cm/s | COc1ccc(Cl)cc1CN1C(=O)C(C)(C)c2ccc(C(=O)Nc3nc(CC(=O)O)cs3)cc21
< 4.00 | < 4.00 | < 4.00 | 6.48 | 6.51 | 181 µg/mL (≈ 414 µM) | 2.5 | 4.32 ×10⁻⁶ cm/s | CC(=O)Nc1ccc(F)c(-c2n[nH]c([C@H]3CCCCN3C(=O)COc3ccccc3)n2)c1
5.37 | < 4.00 | < 4.00 | 6.71 | 6.28 | > 566 µg/mL | -1.41 | 0.13 ×10⁻⁶ cm/s | COc1ccc(Cl)cc1S(=O)(=O)N(C)c1cc(C(=O)Nc2ccn(CC(=O)O)n2)cc2c1OCO2
< 4.00 | < 4.00 | < 4.00 | 6.77 | 5.90 | 191 µg/mL (≈ 467 µM) | 1.05 | 2.86 ×10⁻⁶ cm/s | NC(=O)c1cncc(-c2noc([C@H]3COCCN3C(=O)COc3ccccc3)n2)c1
5.95 | < 4.00 | < 4.00 | 7.02 | 7.07 | 102 µg/mL (≈ 184 µM) | 2.65 | 3.4 ×10⁻⁶ cm/s | CCN(c1cc(C(=O)Nc2nc(CC(=O)O)cs2)cc2c1OCO2)S(=O)(=O)c1cc(Cl)ccc1OC
< 4.00 | < 4.00 | 4.05 | 7.08 | 6.47 | 275 µg/mL (≈ 723 µM) | 1.9 | 5.39 ×10⁻⁶ cm/s | O=C(COc1ccccc1)N1CCCC[C@@H]1c1nc(-c2cc[nH]c(=O)c2)no1
5.31 | 5.24 | 5.53 | 7.47 | 6.92 | 44 µg/mL (≈ 87.2 µM) | 1.93 | 3.63 ×10⁻⁶ cm/s | O=C(O)c1ccc(NC(=O)c2cccc(S(=O)(=O)N3CCCc4ccc(C(F)(F)F)cc43)c2)cc1
4.48 | 4.82 | 4.18 | 7.53 | 6.63 | 60 µg/mL (≈ 149 µM) | 2.26 | 3.03 ×10⁻⁶ cm/s | O=C(COc1ccccc1)N1CCCC[C@@H]1c1noc(-c2ccc3[nH]cnc3c2)n1
